Values quoted from earlier work, collected in US20210308204A1, “FORMULATIONS CONTAINING LIPOPHILIC EXTRACTS OF SPICY EDIBLE PLANTS USEFUL IN CONTROLLING PAIN AND INFLAMMATION” (priority 2018, published 2021).

Conditions: in vivo, po

**Q.** Which tmax does the source give for `C/C1=C\CC/C(C)=C/C[C@](O)(C(C)C)CC/C(C)=C/CC1` [serratol] here?
**A.** Its tmax is “about 15 minutes”.
